Assay results taken from PubChem BioAssay AID1259411 (Chemical Carcinogenesis Research Information System (CCRIS), 2018).
The source made the active and inactive calls. The rule behind the calls is not given here.

Test system: rodent carcinogenicity bioassays, tumor incidence
Test: CCRIS carcinogenicity studies
Settings: Dose: 0
How it was run: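 Archive of carcinogenicity, mutagenicity, tumor promotion and tumor inhibition results drawn from journals, NCI reports and other sources, expert-reviewed; covers 1985-2011 and is no longer updated.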

**Q.** With Cc1cc2c(nc1N)[nH]c1ccccc12 as the molecule, how does the carcinogen call (Species: MOUSE, Strain/Sex: CDF1/FEMALE, Route: ORAL, 0.08% IN DIET FOR UP TO 685 D (STUDY DURATION: 685 D), Tumor Site: Type of Lesion: LIVER: HEPATOCELLULAR ADENOMA OR CARCINOMA, BLOOD VESSELS: HEMANGIOENDOTHELIOMA OR HEMANGIOENDOTHELIAL SARCOMA) read?
**A.** The carcinogen call was “active; positive”.

**Q.** And the carcinogen call (Species: MOUSE, Strain/Sex: CDF1/MALE, Route: ORAL, 0.05% IN DIET FOR UP TO 685 D (STUDY DURATION: 685 D), Tumor Site: Type of Lesion: LIVER: HEPATOCELLULAR ADENOMA OR CARCINOMA, BLOOD VESSELS: HEMANGIOENDOTHELIOMA OR HEMANGIOENDOTHELIAL SARCOMA)?
**A.** Its carcinogen call is “active; positive”.

**Q.** And the carcinogen call (Species: RAT, Strain/Sex: F344/MALE, Route: ORAL, 0.01, 0.02% IN DIET FOR 100 WK (STUDY DURATION: 100 WK), 0.01, 0.02% IN DIET FOR 100 WK (STUDY DURATION: 100 WK), Tumor Site: Type of Lesion: LIVER: HEPATOCELLULAR CARCINOMA, PANCREAS: ACINAR CELL ADENOMA, SKIN (SUBCUTIS): FIBROMA, Tumor Site: Type of Lesion: LIVER: HEPATOCELLULAR CARCINOMA, PANCREAS: ACINAR CELL ADENOMA, SKIN (SUBCUTIS): FIBROMA)?
**A.** The carcinogen call was “active; positive”.

**Q.** What does the source list for NC(=O)c1cnccn1?
**A.** carcinogen call (Species: MOUSE, Strain/Sex: B6C3F1/MALE, Route: ORAL, 5000, 10000 PPM IN DIET, 5000, 10000 PPM IN DIET): inactive; negative; carcinogen call (Species: RAT, Strain/Sex: F344/FEMALE, Route: ORAL, 5000, 10000 PPM IN DIET, 5000, 10000 PPM IN DIET): inactive; negative; carcinogen call (Species: RAT, Strain/Sex: F344/MALE, Route: ORAL, 5000, 10000 PPM IN DIET, 5000, 10000 PPM IN DIET): inactive; negative

**Q.** Which carcinogen call (Species: MOUSE, Strain/Sex: B6C3F1/FEMALE, Route: GAVAGE, 3, 30, 100 MG/KG IN CORN OIL 5 D/WK FOR 103 WK (STUDY DURATION: 104 WK), 3, 30, 100 MG/KG IN CORN OIL 5 D/WK FOR 103 WK (STUDY DURATION: 104 WK)) does the source give for Nc1ccc([N+](=O)[O-])cc1 here?
**A.** The carcinogen call was “inactive; negative”.

**Q.** And the carcinogen call (Species: MOUSE, Strain/Sex: B6C3F1/MALE, Route: GAVAGE, 3, 30, 100 MG/KG IN CORN OIL 5 D/WK FOR 103 WK (STUDY DURATION: 104 WK), 3, 30, 100 MG/KG IN CORN OIL 5 D/WK FOR 103 WK (STUDY DURATION: 104 WK), Tumor Site: Type of Lesion: LIVER: HEMANGIOSARCOMA, ALL ORGANS: HEMANGIOMA OR HEMANGIOSARCOMA)?
**A.** The carcinogen call was “equivocal”.

**Q.** What about the carcinogen call (Species: RAT, Strain/Sex: STRAIN CD/MALE, FEMALE, Route: GAVAGE, 0.25, 1.5, 9 MG/KG IN CORN OIL 1/D 7 D/WK FOR 24 MO (STUDY DURATION: 24 MO), 0.25, 1.5, 9 MG/KG IN CORN OIL 1/D 7 D/WK FOR 24 MO (STUDY DURATION: 24 MO)) of the same molecule?
**A.** Its carcinogen call is “inactive; negative”.

**Q.** How did the carcinogen call (Species: RAT, Strain/Sex: F344/FEMALE, Route: ORAL, 2.5, 5% IN DRINKING WATER FOR 104 WK (MEAN TOTAL INTAKE 0; 237.7; 412.1 G/RAT) (STUDY DURATION: 113 WK), 2.5, 5% IN DRINKING WATER FOR 104 WK (MEAN TOTAL INTAKE 0; 237.7; 412.1 G/RAT) (STUDY DURATION: 113 WK)) turn out when CC(O)C(=O)O (stereo not given) was run?
**A.** The carcinogen call was “inactive; negative”.

**Q.** What about the carcinogen call (Species: RAT, Strain/Sex: F344/MALE, Route: ORAL, 2.5, 5% IN DRINKING WATER FOR 104 WK (MEAN TOTAL INTAKE 0; 329.4; 625.4 G/RAT) (STUDY DURATION: 113 WK), 2.5, 5% IN DRINKING WATER FOR 104 WK (MEAN TOTAL INTAKE 0; 329.4; 625.4 G/RAT) (STUDY DURATION: 113 WK)) of the same molecule?
**A.** Its carcinogen call is “inactive; negative”.

**Q.** Which carcinogen call (Species: RAT, Strain/Sex: WISTAR/FEMALE, Route: ORAL, 25, 50, 100 MG/KG DAILY BY GAVAGE FOR 3 OR 6 MO, 25, 50, 100 MG/KG DAILY BY GAVAGE FOR 3 OR 6 MO, Tumor Site: Type of Lesion: LIVER: NEOPLASTIC NODULE, HEPATOCELLULAR CARCINOMA) does the source give for Cc1cccc(OCC(O)CNC(C)(C)C)c1[N+](=O)[O-] (stereo not given) here?
**A.** Its carcinogen call is “active; positive”.

**Q.** What does the source list for C1CC[CH]([Sn]([CH]2CCCCC2)[CH]2CCCCC2)CC1?
**A.** carcinogen call (Species: Mouse, Strain/Sex: B6C3F1/Female (50/group), Route: Oral, 1, 3, 6 mg/kg of 98% pure cyhexatin in diet for 2 years, 1, 3, 6 mg/kg of 98% pure cyhexatin in diet for 2 years): inactive; negative, (dpr evaluator indicated inadequate justification of dose and too narr; carcinogen call (Species: Mouse, Strain/Sex: B6C3F1/Male (50/group), Route: Oral, 1, 3, 6 mg/kg of 98% pure cyhexatin in diet for 2 years, 1, 3, 6 mg/kg of 98% pure cyhexatin in diet for 2 years): inactive; negative, (dpr evaluator indicated inadequate justification of dose and too narr

**Q.** For Cl/C=C/CCl, which carcinogen call (Species: MOUSE, Strain/Sex: B6C3F1/FEMALE, Route: GAVAGE, 50, 100 MG/KG BODY WT (TELONE II) IN CORN OIL 3 D/WK FOR 104 WK, 50, 100 MG/KG BODY WT (TELONE II) IN CORN OIL 3 D/WK FOR 104 WK, Tumor Site: Type of Lesion: URINARY BLADDER: TRANSITIONAL CELL CARCINOMA, LUNG: ALVEOLAR/BRONCHIOLAR ADENOMA, ALVEOLAR/BRONCHIOLAR ADENOMA OR CARCIN) is on record?
**A.** Its carcinogen call is “active; positive”.

**Q.** And the carcinogen call (Species: MOUSE, Strain/Sex: B6C3F1/FEMALE, Route: INHALATION, 5, 20, 60 PPM TECHNICAL GRADE 6 HR/D 5 D/WK FOR 2 YR (STUDY DURATION: 2 YR), 5, 20, 60 PPM TECHNICAL GRADE 6 HR/D 5 D/WK FOR 2 YR (STUDY DURATION: 2 YR))?
**A.** Its carcinogen call is “inactive; negative”.

**Q.** And the carcinogen call (Species: MOUSE, Strain/Sex: B6C3F1/FEMALE, Route: ORAL, 2.5, 25, 50 MG/KG BW IN DIET FOR 104 WK (STUDY DURATION: 104 WK), 2.5, 25, 50 MG/KG BW IN DIET FOR 104 WK (STUDY DURATION: 104 WK))?
**A.** Its carcinogen call is “inactive; negative”.

**Q.** What about the carcinogen call (Species: MOUSE, Strain/Sex: B6C3F1/MALE, Route: INHALATION, 5, 20, 60 PPM TECHNICAL GRADE 6 HR/D 5 D/WK FOR 2 YR (STUDY DURATION: 2 YR), 5, 20, 60 PPM TECHNICAL GRADE 6 HR/D 5 D/WK FOR 2 YR (STUDY DURATION: 2 YR), Tumor Site: Type of Lesion: LUNG: BRONCHIOALVEOLAR ADENOMA) of the same molecule?
**A.** The carcinogen call was “active; positive”.

**Q.** What about the carcinogen call (Species: MOUSE, Strain/Sex: B6C3F1/MALE, Route: ORAL, 2.5, 25, 50 MG/KG BW IN DIET FOR 104 WK (STUDY DURATION: 104 WK), 2.5, 25, 50 MG/KG BW IN DIET FOR 104 WK (STUDY DURATION: 104 WK)) of the same molecule?
**A.** The carcinogen call was “inactive; negative”.

**Q.** And the carcinogen call (Species: RAT, Strain/Sex: F344/FEMALE, Route: GAVAGE, 25, 50 MG/KG BODY WT (TELONE II) IN CORN OIL 3 D/WK FOR 104 WK, 25, 50 MG/KG BODY WT (TELONE II) IN CORN OIL 3 D/WK FOR 104 WK, Tumor Site: Type of Lesion: FORESTOMACH: SQUAMOUS CELL PAPILLOMA)?
**A.** Its carcinogen call is “active; positive”.

**Q.** And the carcinogen call (Species: RAT, Strain/Sex: F344/FEMALE, Route: INHALATION, 5, 20, 60 PPM TECHNICAL GRADE 6 HR/D 5 D/WK FOR 2 YR (STUDY DURATION: 2 YR), 5, 20, 60 PPM TECHNICAL GRADE 6 HR/D 5 D/WK FOR 2 YR (STUDY DURATION: 2 YR))?
**A.** Its carcinogen call is “inactive; negative”.

**Q.** And the carcinogen call (Species: RAT, Strain/Sex: F344/FEMALE, Route: ORAL, 2.5, 12.5, 25 MG/KG BW IN DIET FOR 104 WK (STUDY DURATION: 104 WK), 2.5, 12.5, 25 MG/KG BW IN DIET FOR 104 WK (STUDY DURATION: 104 WK), Tumor Site: Type of Lesion: LIVER: HEPATOCELLULAR ADENOMA)?
**A.** The carcinogen call was “active; positive”.

**Q.** What about the carcinogen call (Species: RAT, Strain/Sex: F344/MALE, Route: GAVAGE, 25, 50 MG/KG BODY WT (TELONE II) IN CORN OIL 3 D/WK FOR 104 WK, 25, 50 MG/KG BODY WT (TELONE II) IN CORN OIL 3 D/WK FOR 104 WK, Tumor Site: Type of Lesion: FORESTOMACH: SQUAMOUS CELL PAPILLOMA, SQUAMOUS CELL PAPILLOMA OR CARCINOMA, LIVER: NEOPLASTIC NODULE, NEOPLASTIC NODULE) of the same molecule?
**A.** The carcinogen call was “active; positive”.

**Q.** What about the carcinogen call (Species: RAT, Strain/Sex: F344/MALE, Route: INHALATION, 5, 20, 60 PPM TECHNICAL GRADE 6 HR/D 5 D/WK FOR 2 YR (STUDY DURATION: 2 YR), 5, 20, 60 PPM TECHNICAL GRADE 6 HR/D 5 D/WK FOR 2 YR (STUDY DURATION: 2 YR)) of the same molecule?
**A.** Its carcinogen call is “inactive; negative”.

**Q.** What about the carcinogen call (Species: RAT, Strain/Sex: F344/MALE, Route: ORAL, 2.5, 12.5, 25 MG/KG BW IN DIET FOR 104 WK (STUDY DURATION: 104 WK), 2.5, 12.5, 25 MG/KG BW IN DIET FOR 104 WK (STUDY DURATION: 104 WK), Tumor Site: Type of Lesion: LIVER: HEPATOCELLULAR ADENOMA) of the same molecule?
**A.** Its carcinogen call is “active; positive”.
